In patent publication US20070190129A1, “Sustained release dosage forms of ziprasidone” (Pfizer Inc., priority 2003, published 2007):
Values after ≈ are worked out from the molar mass of the structure shown. Structures can show the parent of a compound that is named as a salt. Where two headings read alike, the source gives them in different places.

How the values were obtained:
[1] = In vitro membrane permeation test; assay type: physicochemical; settings: for Concentration (permeate solution): feed MFD solution, 100 μgA/mL if all dissolved, 37° C.
Procedure: The ziprasidone coated crystals were evaluated in vitro using a membrane permeation test. An Accurel® PP 1E microporous polypropylene membrane was obtained from Membrana GmbH (Wuppertal, Germany). The membrane was washed in isopropyl alcohol and rinsed in methanol in a sonicating bath for 1 minute at ambient temperature, and then allowed to air dry at ambient temperature. The feed side of the membrane was then plasma-treated to render it hydrophilic by placing a sample of the membrane in a plasma chamber. The atmosphere of the plasma chamber was saturated with water vapor at a pressure of 550 mtorr. A plasma was then generated using radio frequency (RF) power inductively coupled into the chamber via annular electrodes at a power setting of 50 watts for 45 seconds. The contact angle of a drop of water placed on the surface of the plasma-treated membrane was about 40°. The contact angle of a drop of water placed on the permeate side of the same membrane was greater than about 110°.
A permeate reservoir was formed by gluing a sample of the plasma-treated membrane to a glass tube having an inside diameter of about 1 inch (2.54 cm) using an epoxy-based glue (LOCTITE® E-30CL HYSOL®) from Henkel Loctite Corp, Rocky Hill, Conn.). The feed-side of the membrane was oriented so that it was on the outside of the permeate reservoir, while the permeate-side of the membrane was oriented so that it was on the inside of the reservoir. The effective membrane area of the membrane on the permeate reservoir was about 4.9 cm^2. The permeate reservoir was placed into a glass feed reservoir. The feed reservoir was equipped with a magnetic stir bar and the reservoir was placed on a stir plate and the stir rate was set to 100 rpm during the test. The apparatus was placed into a chamber maintained at 37° C. for the duration of the test. Further details of the test apparatus and protocols are presented in co-pending U.S. patent application Ser. No. 60/557,897, entitled “Method and Device for Evaluation of Pharmaceutical Compositions,” filed Mar. 30, 2004 (attorney Docket No. PC25968), incorporated herein by reference.
To form the feed solution, a 1.39 mg sample of the coated crystals was weighed into the feed reservoir. To this was added 5 mL of MFD solution previously described, consisting of PBS solution containing 7.3 mM sodium taurocholic acid and 1.4 mM of 1-palmitoyl-2-oleyl-sn-glycero-3-phospocholine (0.5% NaTC/POPC). The concentration of ziprasidone in the feed solution, would have been 100 μgA/mL, if all of the ziprasidone had dissolved. The feed solution was mixed using a vortex mixer for 1 minute. Before the membrane contacted the feed solution, 5 mL of 60 wt% decenol in decane was placed into the permeate reservoir. Time zero in the test was the membrane was placed in contact with the feed solution. A […] aliquot of the permeate solution was collected at the times indicated. Samples were then diluted in […] IPA and analyzed using HPLC.
As a control, the membrane test was repeated using a 0.5-mg sample of crystalline ziprasidone alone, so that the concentration of drug would have been 100 μg/mL, if all of the drug had dissolved.
The maximum flux of drug across the membrane (in units of mgA/cm^2-min) was determined by performing a least-squares fit to the data in Table 3 from 0 to 60 minutes to obtain the slope, multiplying the slope by the permeate volume (5 mL), and dividing by the membrane area (4.9 cm^2).

physchem = experiment: physchem
From the text: To achieve efficacious blood levels over long periods of time, the sustained release dosage form should release ziprasidone to the gastrointestinal tract in a manner that allows ziprasidone to be absorbed for a sustained length of time. However, formulating ziprasidone into a sustained release dosage form presents a number of problems. […] Such low solubility at intestinal pH inhibits absorption of ziprasidone in the intestines.
In one embodiment, the solubility-improved form of ziprasidone is a high solubility salt form. It is known that some low-solubility drugs may be formulated in highly soluble salt forms that provide temporary improvements in the concentration of the drug in a use environment relative to another salt form of the drug.

[2] = Microcentrifuge dissolution test in MFD solution; assay type: physicochemical; design: AUC: concentration or dose not given beside the values; settings: for AUC / Dissolved Ziprasidone Concentration: MFD solution pH 6.5, 37° C.; for Dissolved Ziprasidone Concentration: 200 μgA/mL if all dissolved
Procedure: The tests were run in duplicate. The tubes were placed in a 37° C. temperature-controlled chamber, and 1.8 mL MFD solution at pH 6.5 and 290 mOsm/kg was added to each respective tube. The samples were quickly mixed using a vortex mixer for about 60 seconds. The samples were centrifuged at 13,000 G at 37° C. for 1 minute prior to collecting a sample. The resulting supernatant solution was then sampled and diluted 1:5 (by volume) with methanol. Samples were analyzed by high-performance liquid chromatography (HPLC) at a UV absorbance of 315 nm using a Zorbax RxC8 Reliance column and a mobile phase consisting of 55% (50 mM potassium dihydrogen phosphate, pH 6.5)/45% acetonitrile. Drug concentration was calculated by comparing UV absorbance of samples to the absorbance of drug standards. The contents of each tube were mixed on the vortex mixer and allowed to stand undisturbed at 37° C. until the next sample was taken. Samples were collected at 4, 10, 20, 40, 90, and 1200 minutes following administration to the MFD solution.
A similar test was performed with the crystalline ziprasidone free base as a control, and a sufficient amount of material was added so that the concentration of compound would have been 200 μgA/mL, if all of the ziprasidone had dissolved.
The concentration of ziprasidone obtained in these tests were used to determine the maximum dissolved concentration of ziprasidone (“MDC90”) and the area under the concentration-versus time (“AUC90”) during the initial ninety minutes.

D2 receptor = D2 receptor (Homo sapiens, UniProt P14416); settings: cited from earlier work
[3] = with food versus without; cited from earlier work
[4] = at the pH of the saturated solution
[5] = initial ninety minutes, MFD solution pH 6.5

D2 receptor, sequence (P14416 whole entry): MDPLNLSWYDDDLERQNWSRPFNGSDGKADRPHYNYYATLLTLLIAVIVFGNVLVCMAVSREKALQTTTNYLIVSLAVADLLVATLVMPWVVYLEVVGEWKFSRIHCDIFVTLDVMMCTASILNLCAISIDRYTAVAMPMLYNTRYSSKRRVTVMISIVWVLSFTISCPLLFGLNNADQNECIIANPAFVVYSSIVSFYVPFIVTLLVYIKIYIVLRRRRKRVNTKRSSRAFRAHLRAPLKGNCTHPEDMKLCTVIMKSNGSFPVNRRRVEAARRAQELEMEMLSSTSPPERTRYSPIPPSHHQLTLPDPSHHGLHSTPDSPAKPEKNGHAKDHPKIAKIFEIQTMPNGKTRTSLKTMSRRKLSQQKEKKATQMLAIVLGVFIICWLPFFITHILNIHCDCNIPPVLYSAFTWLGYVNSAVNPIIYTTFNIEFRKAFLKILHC

With `Cl.O=C1Cc2cc(CCN3CCN(c4nsc5ccccc45)CC3)c(Cl)cc2N1` [Crystalline Ziprasidone HCl] the “Concentration (permeate solution)” value ([1]; 0 min) was 0.0 μgA/mL, the “Concentration (permeate solution)” value ([1]; 20 min) was 5.2 μgA/mL and the “Concentration (permeate solution)” value ([1]; 40 min) was 8.1 μgA/mL. The “Concentration (permeate solution)” value ([1]; 60 min) was 10.0 μgA/mL, the “Concentration (permeate solution)” value ([1]; 90 min) was 11.4 μgA/mL and the “Concentration (permeate solution)” value ([1]; 120 min) was 12.9 μgA/mL. For the same compound, the “Concentration (permeate solution)” value ([1]; 180 min) was 18.1 μgA/mL, the “Concentration (permeate solution)” value ([1]; 245 min) was 20.9 μgA/mL and the “Concentration (permeate solution)” value ([1]; 360 min) was 22.6 μgA/mL. It also gave a Maximum flux of Ziprasidone ([1]; least-squares fit 0 to 60 minutes, permeate volume 5 mL, membrane area 4.9 cm^2) of 0.16 µgA/cm²·min.

In the case of `O=C(O)c1ccccc1O` [Salicylate], the “Aqueous Solubility” value (physchem) is reported as 58 µg/mL and the “pH of Saturated Solution” value (physchem) is reported as 5.5.

For `O=C1Cc2cc(CCN3CCN(c4nsc5ccccc45)CC3)c(Cl)cc2N1` [Ziprasidone hydrochloride monohydrate, ziprasidone hydrochloride monohydrate], the “AUC90 (area under the concentration-versus time)” value ([2]; initial ninety minutes, MFD solution pH 6.5, hydrochloride monohydrate) was 1,700 min*μgA/mL and the “MDC90 (maximum dissolved concentration of ziprasidone)” value ([2]; pH 6.5) was 22 μgA/mL.

In the case of `O=C1Cc2cc(CCN3CCN(c4nsc5ccccc45)CC3)c(Cl)cc2N1` [ziprasidone, 5-[2-[4-(1,2-benzisothiazol-3-yl)-1-piperazinyl]ethyl]-6-chloro-1,2-dihydro-2H-indol-2-one], the “pH of Saturated Solution” value (physchem) is reported as 9.8, the solubility (physchem; pH 6.5, aqueous buffer) is reported as about 0.2 µg/mL (≈ 0.484 µM) and the solubility (physchem; pH 9.8, water) is reported as 0.2 µg/mL (≈ 0.484 µM). The “AUC90 (area under the concentration-versus time)” value ([2]; initial ninety minutes, MFD solution pH 6.5, listed as Ziprasidone free base) was 120 min*μgA/mL, the “MDC90 (maximum dissolved concentration of ziprasidone)” value ([2]; pH 6.5) was 2 μgA/mL and the D2 occupancy (D2 receptor; blood ziprasidone concentration 16 ng/ml) was “approximately 50%”. The D2 occupancy (D2 receptor; blood ziprasidone concentration 30 ng/ml) was “approximately 65%”, the D2 occupancy (D2 receptor; blood ziprasidone concentration 50 ng/ml) was “approximately 75%” and the “absorption in the presence of food” value [3] was “increased up to two-fold”.

With Fumarate the “Aqueous Solubility” value (physchem) was 2000 µg/mL and the “pH of Saturated Solution” value (physchem) was 2.5.

For Maleate, the “Aqueous Solubility” value (physchem) was 118 µg/mL and the “pH of Saturated Solution” value (physchem) was 4.3.

In the case of Phosphate, the “pH of Saturated Solution” value (physchem) is reported as 2.3 and the “Aqueous Solubility” value (physchem; [4]) is reported as 37 µg/mL.

With Tosylate the “pH of Saturated Solution” value (physchem) was 6.0 and the “Aqueous Solubility” value (physchem; [4]) was 64 µg/mL.

With ziprasidone mesylate trihydrate the AUC ([2]; 0 min) was 0 min-μgA/mL, the “Dissolved Ziprasidone Concentration” value ([2]; 0 min) was 0 μgA/mL and the AUC ([2]; 4 min) was 110 min-μgA/mL. For the same compound, the “Dissolved Ziprasidone Concentration” value ([2]; 4 min) was 55 μgA/mL, the AUC ([2]; 10 min) was 380 min-μgA/mL and the “Dissolved Ziprasidone Concentration” value ([2]; 10 min) was 33 μgA/mL. For the same compound, the AUC ([2]; 20 min) was 640 min-μgA/mL, the “Dissolved Ziprasidone Concentration” value ([2]; 20 min) was 20 μgA/mL and the AUC ([2]; 40 min) was 970 min-μgA/mL. For the same compound, the “Dissolved Ziprasidone Concentration” value ([2]; 40 min) was 13 μgA/mL, the AUC ([2]; 90 min) was 1,600 min-μgA/mL and the “Dissolved Ziprasidone Concentration” value ([2]; 90 min) was 11 μgA/mL. The AUC ([2]; 1200 min) was 11,200 min-μgA/mL, the “Dissolved Ziprasidone Concentration” value ([2]; 1200 min) was 6 μgA/mL and the “AUC90 relative to that provided by the free base” value ([2]; MFD solution pH 6.5) was 13 fold. The “MDC90 relative to that provided by the free base” value ([2]; MFD solution pH 6.5) was 27 fold, the “AUC90 (area under the concentration-versus time)” value [2, 5] was 1,600 min*μgA/mL and the “MDC90 (maximum dissolved concentration of ziprasidone)” value [2, 5] was 55 μgA/mL.
